In brackets after ≈: the same amount, converted by molar mass. Bridge positions count the residues as written; N and C are the ends. Peptide text beside a SMILES is read from it. I, II: the chains in the order shown. Where only a bound is given, the exact number is not on record here.

For orientation: thermodynamic solubility means solubility found after equilibrating the solid with the medium. What is called solubility is the concentration that dissolves in the medium under given conditions. Read a low solubility as little dissolved substance.

Data set [1] can be described thus: Measurement of solubility in isotonic buffer (Experimental Examples 7 and 8).
Method: (§1) To prepare a test solution, about 1 mg of a test product was measured and the isotonic buffer (0.5 mL) was added thereto. The prepared solution was shaken at room temperature for 90 min (shaking conditions: RECIPRO SHAKER SR-1N manufactured by TAITEC, Speed=8), centrifuged (15000 rpm, 5 min, room temperature), and the supernatant after centrifugation was used as a test solution.
(§2) About 1 mg of the test product was accurately measured, dissolved in 0.1% TFA water/acetonitrile=1/1, made the total amount 10 mL, and this was used as a standard solution of the test product.
(§3) The standard solution of the test product and the test solution are analyzed by HPLC (under the analysis conditions described in Table 34), and the solubility of the test product is calculated from the ratio of peak area compared to the standard solution.
(§4) column: Chemcopack Quicksorb (4.6 mmφ×150 mm, 5 μm)
(§5) manufactured by Chemco Scientific Co., Ltd.
(§6) mobile phase: SOLUTION A; 0.1% TFA water, SOLUTION B;
0.1% TFA acetonitrile solution
column temperature: room temperature
(§7) detection wavelength: UV 254 nm, 230 nm (2 wavelength detection)
sample injection volume: 10
Data set [2] has as its target T1, ERAP1 (Homo sapiens, UniProt Q9NZ08). Kind of data set: Test of trimming of N-terminal amino acid by ERAP1 (Experimental Example 11, Examples 50, 56, 64, 67). Format: biochemical. Particulars: Proteinase-3 169-177 peptide obtained by ERAP1 trimming; from HPLC AUC. As for the experimental part:
The peptides synthesized in Examples 50, 56, 64 and 67 were evaluated for N-terminal amino acid trimming efficiency using ERAP1. 50 μl of ERAP1 solution (10 μg/ml) in pH 8.0, 20 mM Tris.HCl-100 mM NaCl buffer (Tris.HCl buffer) was added to 142 μl of Tris.HCl buffer. 10 mM peptide solution in DMSO (2.0 μl) and 6.0 μL of DMSO were added to the aforementioned ERAP1 solution, and the mixture was blended well and stood at 30° C. […] The peptide to be obtained by trimming was chemically synthesized separately, and analyzed under similar conditions in the absence of the enzyme. […]
pump: UFLC manufactured by Shimadzu […]
solution: 0.1% TFA H2O(A)-0.1% TFA CH3CN(B) […]
detection wavelength: λ=220 nm gradient: concentration of SOLUTION B was raised from 10% to 50% from 0.0 min to 8.5 min

Data set [3] has as its target T1, ERAP1. Description: Time-course changes of trimming of N-terminal amino acid by ERAP1 (Experimental Example 2). Particulars: peptide obtained by trimming (SEQ ID NO: 53, 43 or 19), ERAP1 solution 0.5 mg/ml, room temperature. Format: biochemical. The protocol: 20 μl of ERAP1 solution (0.5 mg/ml) in Tris.HCl buffer was added to 172 μl of Tris.HCl buffer. 10 mM peptide solution in DMSO (8.0 μl) was added to the aforementioned ERAP1 solution, and the mixture was blended well and stood at room temperature. […]
pump: UFLC manufactured by Shimadzu column: Shim-pack XR-ODS 3.0 mmi.d.×75 mm solution: 0.05% TFA H2O(A)-0.05% TFA CH3CN(B) […]
detection wavelength: λ=220 nm gradient: Concentration of SOLUTION B was raised from 1.0% 70% from 0.0 min to 5.0 min […]
The peptide to be obtained by the trimming of the N-terminal amino acid(s) by ERAP1 is, […]

The subject of data set [4] is HLA-A0201 transgenic mouse. Description: In vivo CTL induction ability, IFNγ ELISPOT, Cys-extended peptides (Experimental Example 3). Particulars: intradermal, 2 sites, 50 μg/site with IFA; splenocytes one week later re-stimulated with Cys non-extended or Cys-extended peptide 10 μg/mL.
Method: The CTL induction ability of each peptide extended by cysteine (Cys) (Cys-extended peptide) shown in Table 23 was evaluated by in vivo CTL induction test using an HLA-A0201 transgenic mouse.
HLA-A0201 transgenic mouse (C57BL/6CrHLA-A2.1DR1) is a mouse which is defective in mouse MHC, and expresses a chimera HLA of human MHC HLA-A0201 and mouse MHC H-2D^b, and HLA-DRB1*0101.
The emulsified peptide was intradermally administered to 2 sites at the base of tail of the mouse at 50 μg/site. One week later, the mouse was euthanized with CO2 gas, the spleen was isolated, and splenocytes were prepared. IFNγ ELISPOT assay kit was used for the measurement of IFNγ production. On the previous day of splenocyte preparation, an ELISPOT plate was treated with an anti-mouse IFNγ antibody, and blocked with RPMI1640 medium containing 10% FBS the next day. The prepared HLA-A0201 transgenic mouse-derived splenocytes were plated at 2.5×10^5 cells/well on the blocked ELISPOT plate. […] These splenocytes were cultivated for 20 hr at 37° C., 5% CO2, whereby peptide re-stimulation in vitro was performed. Thereafter, the supernatant was removed, and the ELISPOT plate was allowed to develop color according to the attached protocol. The number of spots that developed color was measured by KS ELISPOT.
The test system of data set [5] is HLA-A0201 transgenic mouse. Description: In vivo CTL induction ability, IFNγ ELISPOT, formula (11) (Experimental Example 13). Particulars: 250 μg/site with IFA, 17 hr. The protocol: The compound represented by the formula (11) synthesized in Example 109 was evaluated for the CTL induction ability by an in vivo CTL induction test using an HLA-A0201 transgenic mouse. The compound represented by the formula (11): […]
To evaluate whether CTLs to each of the peptides (SEQ ID NOs: 19 and 88) endogenously presented by cancer cells was induced, the compound represented by the formula (11) was administered to the HLA-A0201 transgenic mouse. That is, it was determined whether IFNγ production was observed by re-stimulation, with the peptide (SEQ ID NO: 19 or 88), of the splenocyte derived from the above-mentioned mouse administered with the compound represented by the formula (11).
Specifically, the compound represented by the formula (11) was dissolved in dimethyl sulfoxide (DMSO) at 80 mg/mL, further diluted with water for injection to 10 mg/mL, and emulsified by mixing with an equal amount of incomplete Freund's adjuvant (IFA). The emulsified compound was intradermally administered to 2 sites at the base of tail of the mouse at 250 μg/site. One week later, the mouse was euthanized with CO2 gas, the spleen was isolated, and splenocytes were prepared. IFNγ ELISPOT assay kit was used for the measurement of IFNγ production. […] The number of spots that developed color was measured by ImmunoSpot Analyzer (manufactured by C.T.L.). […]

Data set [6] deals with HLA-A0201 transgenic mouse. Description: In vivo CTL induction ability, IFNγ ELISPOT, formula (5) (Experimental Example 14). Particulars: 250 μg/site with IFA, 17 hr. As for the experimental part:
The compound represented by the formula (5) synthesized in Example 110 was evaluated for the CTL induction ability by an in vivo CTL induction test using HLA-A0201 transgenic mouse. The compound represented by the formula (5): […]
Specifically, the compound represented by the formula (5) was dissolved in dimethyl sulfoxide (DMSO) at 80 mg/mL, further diluted with water for injection to 10 mg/mL, and emulsified by mixing with an equal amount of incomplete Freund's adjuvant (IFA). The emulsified compound was intradermally administered to 2 sites at the base of tail of the mouse at 250 μg/site. One week later, the mouse was euthanized with CO2 gas, the spleen was isolated, and splenocytes were prepared. IFNγ ELISPOT assay kit was used for the measurement of IFNγ production. On the previous day of splenocyte preparation, an ELISPOT plate was treated with an anti-mouse IFNγ antibody, and blocked with RPMI1640 medium containing 10% FBS the next day. The prepared HLA-A0201 transgenic mouse-derived splenocytes were plated at 0.25×10^6 cells/well on the blocked ELISPOT plate. […] After the culture, the supernatant was removed, and the ELISPOT plate was allowed to develop color according to the attached protocol. The number of spots that developed color was measured by ImmunoSpot Analyzer (manufactured by C.T.L.).

Setting [7] is: splenocytes pulsed with SEQ ID NO: 19, 10 μg/mL.

T1 sequence (Q9NZ08 whole entry): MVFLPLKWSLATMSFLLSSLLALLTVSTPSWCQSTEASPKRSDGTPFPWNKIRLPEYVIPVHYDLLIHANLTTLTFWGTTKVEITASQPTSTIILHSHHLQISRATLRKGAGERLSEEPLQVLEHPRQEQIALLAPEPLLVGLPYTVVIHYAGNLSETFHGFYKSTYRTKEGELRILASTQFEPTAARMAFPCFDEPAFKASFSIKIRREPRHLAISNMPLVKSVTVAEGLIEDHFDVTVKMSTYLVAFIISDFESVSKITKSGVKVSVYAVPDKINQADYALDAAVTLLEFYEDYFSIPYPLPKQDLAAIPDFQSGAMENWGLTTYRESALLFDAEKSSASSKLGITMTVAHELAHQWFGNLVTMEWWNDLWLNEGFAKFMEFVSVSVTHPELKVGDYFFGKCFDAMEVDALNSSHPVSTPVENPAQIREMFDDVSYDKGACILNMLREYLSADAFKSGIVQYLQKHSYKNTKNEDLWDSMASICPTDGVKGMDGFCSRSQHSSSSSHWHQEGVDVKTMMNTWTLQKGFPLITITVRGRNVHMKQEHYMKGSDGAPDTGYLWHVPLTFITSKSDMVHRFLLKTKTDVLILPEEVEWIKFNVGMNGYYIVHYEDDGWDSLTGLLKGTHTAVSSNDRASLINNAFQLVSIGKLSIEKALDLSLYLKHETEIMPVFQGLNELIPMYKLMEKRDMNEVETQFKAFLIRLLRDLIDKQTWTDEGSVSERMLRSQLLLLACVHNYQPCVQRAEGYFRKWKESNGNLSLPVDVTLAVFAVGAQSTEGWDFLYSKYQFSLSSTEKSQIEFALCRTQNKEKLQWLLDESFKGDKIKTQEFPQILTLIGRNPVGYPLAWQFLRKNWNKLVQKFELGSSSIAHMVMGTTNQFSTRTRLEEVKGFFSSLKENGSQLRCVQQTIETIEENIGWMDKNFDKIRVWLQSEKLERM
Method for physchem: as §1, §2, §3, §4, §5, §6
0.1% TFA acetonitrile solution
column temperature: room temperature
as §7
sample injection volume: 10

On to H-GLYDGMEHL-OH [SEQ ID NO: 19], for which the thermodynamic solubility at 90 min in data set [1] (pH 6) and in data set [1] (pH 7.4) was greater than 1000 µg/mL each time.
On to H-YCVLQELNVTV-OH [Example 67], for which the “formation rate of VLQELNVTV (SEQ ID NO: 43)” value at ERAP1 [2] was determined as 0.7%.
Turning to H-VYGFVRACL-OH [SEQ ID NO: 87], the thermodynamic solubility at 90 min in data set [1] (pH 6) and in data set [1] (pH 7.4) was greater than 1000 µg/mL throughout.
Regarding H-GCVLQELNVTV-OH [Example 56], the “formation rate of VLQELNVTV (SEQ ID NO: 43)” value at ERAP1 [2] was determined as 1.1%.
Regarding H-CVLQELNVTV-OH [Example 21], at ERAP1 [3], the “formation rate(%) 1 hr later” value turned out to be 83.4%, the “formation rate(%) 2 hr later” value came out at 85.6%, the “formation rate(%) 4 hr later” value was found to be 78.8% and the “formation rate(%) 8 hr later” value worked out at 83.9%. Further, the “in vivo CTL induction ability (IFNγ ELISPOT)” value in data set [4] was “has an in vivo CTL induction ability”.
With H-CGLYDGMEHL-OH [Example 25], on ERAP1 [3], the “formation rate(%) 1 hr later” value was 95.1%, the “formation rate(%) 2 hr later” value amounted to 106%, the “formation rate(%) 4 hr later” value was determined as 100% and the “formation rate(%) 8 hr later” value was found to be 101%. For the same molecule, in data set [4], the “in vivo CTL induction ability (IFNγ ELISPOT)” value is reported as “has an in vivo CTL induction ability”.
With H-ACVLQELNVTV-OH [Example 50], the “formation rate of VLQELNVTV (SEQ ID NO: 43)” value at ERAP1 [2] came out at 1.8%.
For the molecule H-SCVLQELNVTV-OH [Example 64], the “formation rate of VLQELNVTV (SEQ ID NO: 43)” value at ERAP1 [2] amounted to 1.3%.
In the case of `CC[C@H](C)[C@H](NC(=O)[C@H](Cc1c[nH]c2ccccc12)NC(=O)[C@H](CCSC)NC(=O)[C@H](CC(C)C)NC(=O)[C@H](CC(C)C)NC(=O)[C@@H](N)CO)C(=O)N[C@H](C(=O)N[C@@H](CCC(N)=O)C(=O)N[C@@H](CSSC[C@H](N)C(=O)NCC(=O)N[C@@H](CC(C)C)C(=O)N[C@@H](Cc1ccc(O)cc1)C(=O)N[C@@H](CC(=O)O)C(=O)NCC(=O)N[C@@H](CCSC)C(=O)N[C@@H](CCC(=O)O)C(=O)N[C@@H](Cc1c[nH]cn1)C(=O)N[C@@H](CC(C)C)C(=O)O)C(=O)O)[C@@H](C)O` [Example 109], in data set [5] (setting [7]), the “induction of CTLs specific to the peptide shown by SEQ ID NO: 19” value is “can induce CTLs”. Also, in data set [5] (splenocytes pulsed with SEQ ID NO: 88, 10 μg/mL), the “induction of CTLs specific to the peptide shown by SEQ ID NO: 88” value is reported as “can induce CTLs”. Further, the values for the solubility at 90 min in “physchem” (pH 6) and in the data set “physchem” (pH 7.4) were 79 µg/mL (≈ 35.4 µM) and 700 µg/mL (≈ 314 µM), respectively.
Regarding `CSCC[C@H](NC(=O)CNC(=O)[C@H](CC(=O)O)NC(=O)[C@H](Cc1ccc(O)cc1)NC(=O)[C@H](CC(C)C)NC(=O)CNC(=O)[C@@H](N)CSSC[C@H](N)C(=O)N[C@H](C(=O)N[C@@H](CC(C)C)C(=O)N[C@@H](CCC(N)=O)C(=O)N[C@@H](CCC(=O)O)C(=O)N[C@@H](CC(C)C)C(=O)N[C@@H](CC(N)=O)C(=O)N[C@H](C(=O)N[C@H](C(=O)N[C@H](C(=O)O)C(C)C)[C@@H](C)O)C(C)C)C(C)C)C(=O)N[C@@H](CCC(=O)O)C(=O)N[C@@H](Cc1c[nH]cn1)C(=O)N[C@@H](CC(C)C)C(=O)O` [Example 110] (I: H-CGLYDGMEHL-OH / II: H-CVLQELNVTV-OH; disulfide I:1-II:1), in data set [6] (setting [7]), the “induction of CTLs specific to the peptide shown by SEQ ID NO: 19” value was “can induce CTLs”. Also, the “induction of CTLs specific to the peptide shown by SEQ ID NO: 43” value in data set [6] (splenocytes pulsed with SEQ ID NO: 43, 10 μg/mL) was “can induce CTLs”. In addition, the solubility (thermodynamic) at 90 min was 511 µg/mL (≈ 227 µM) in the data set “physchem” (pH 6) and greater than 1000 µg/mL in “physchem” (pH 7.4).
Turning to `CC[C@H](C)[C@H](NC(=O)[C@H](CCCCN)NC(=O)[C@@H](N)CSSC[C@H](NC(=O)[C@@H](C)NC(=O)[C@H](C)NC(=O)[C@H](C)NC(=O)[C@H](CCCCN)NC(=O)[C@H](CC(C)C)NC(=O)[C@@H](NC(=O)[C@H](Cc1c[nH]c2ccccc12)NC(=O)[C@H](C)NC(=O)[C@H](C)NC(=O)[C@@H](NC(=O)[C@H](Cc1ccccc1)NC(=O)[C@H](CCCCN)NC(=O)[C@@H](C)N)C(C)C)[C@@H](C)O)C(=O)O)C(=O)N[C@@H](Cc1ccccc1)C(=O)NCC(=O)N[C@@H](CO)C(=O)N[C@@H](CC(C)C)C(=O)N[C@@H](C)C(=O)N[C@@H](Cc1ccccc1)C(=O)N[C@@H](CC(C)C)C(=O)O` [Example 113], the thermodynamic solubility at 90 min in the data set “physchem” (pH 6) is less than 1 µg/mL; in “physchem” (pH 7.4), 2 µg/mL (≈ 0.785 µM).

(Values after patent publication US10588952B2, “Conjugate vaccine using trimming function of ERAP1” (SUMITOMO DAINIPPON PHARMA CO., LTD., priority 2013, dated 2020).)
